Experimental findings from patent publication US9469615B2, “Quinoxalines and AZA-quinoxalines as CRTH2 receptor modulators” (Merck Sharp & Dohme Corp., priority 2010, dated 2016) are described below.

This test addresses T1, hCRTH2 (Homo sapiens, UniProt Q9Y5Y4).
T1 construct: expressed in transfected cells; host or cells: HEK (human embryonic kidney) cells expressing hCRTH2; membrane preparation
T1 sequence (Q9Y5Y4 1-395): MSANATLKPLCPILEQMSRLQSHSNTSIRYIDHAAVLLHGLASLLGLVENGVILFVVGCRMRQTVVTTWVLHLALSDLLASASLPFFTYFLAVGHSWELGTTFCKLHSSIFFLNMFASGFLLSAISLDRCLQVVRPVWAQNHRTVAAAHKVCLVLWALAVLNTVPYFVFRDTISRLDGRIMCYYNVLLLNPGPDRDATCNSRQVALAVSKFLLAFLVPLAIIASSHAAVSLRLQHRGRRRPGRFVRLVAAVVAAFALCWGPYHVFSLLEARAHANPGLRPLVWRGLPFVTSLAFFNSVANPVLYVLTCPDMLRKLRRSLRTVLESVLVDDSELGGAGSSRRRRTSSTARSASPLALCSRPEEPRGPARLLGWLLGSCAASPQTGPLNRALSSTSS
Put plainly: Radioligand binding assay ([3H]PGD2 competition, HEK-hCRTH2 membranes). The following applies: [3H]PGD2 binding. The protocol: Biological Assays Radioligand Binding Assay.
Radioligand binding assays were performed at room temperature in 50 mM Tris-HCl pH 7.4, 1 mM EDTA containing 2 mM MnCl2 and 3.0 nM [^3H]PGD2 (New England Nuclear, Boston, Mass.) (171 Ci mmol^−1), in a final volume of 0.2 mL. Competing ligands were diluted in dimethylsulfoxide (Me2SO) that was kept constant at 1% (v/v) of the final incubation volume. The reaction was initiated by the addition of 8-20 μg of membrane protein prepared from a human embryonic kidney (HEK)-hCRTH2 cell line. Total and non-specific binding were determined in the absence and the presence of 10 μM PGD2, respectively. […] The reaction was routinely conducted for 60 min at room temperature and terminated by rapid filtration through prewetted (0.3% polyethyleneimine) 96-well printed Filtermate™ (Wallac) using a Tomtec® harvester (Hamden, Conn.). After washing with cold buffer, the filter was dried for 2 minutes in microwave, and Meltilex Scintillator sheet (Wallac) was melted on for 2 min. The radioactivity was measured with Betaplate model 1205 (Wallac).

For orientation: Ki means the dissociation constant of the complex between target and ligand, obtained from inhibition or displacement. Read a high Ki as weaker binding.

On to `O=C(O)CCCCc1nc2cc(C(=O)N3CCC(c4ccccc4)C3)ccc2nc1-c1ccc(C(F)(F)F)cc1` (stereo in doubt) [compound 152, 7-[(3R)-phenyl-1-pyrrolidinyl)carbonyl]-3-[4-(trifluoromethyl)phenyl]-2-quinoxalinepentanoic acid], for which the Ki by setting is: (rated A-E (Table A)) 2.1 to 20 nM; (values in text) 2.9 nM.
`O=C(O)CCCCc1nc2cc(C(=O)N3CCC(c4ccccc4)C3)ccc2nc1-c1ccc(C(F)(F)F)cc1` (stereo in doubt) [compound 153, 7-[(3(S)-phenyl-1-pyrrolidinyl]carbonyl]-3-[4-(trifluoromethyl)phenyl]-2-quinoxalinepentanoic acid] had an inhibition constant Ki (rated A-E (Table A)) of 0.1 to 2 nM.
Consider `CC(NC(=O)c1ccc2nc(-c3ccc(C(F)(F)F)cc3)c(CCCCC(=O)O)nc2c1)c1ccncc1` (stereo not shown) [3AA, 7-[[[1-(4-pyridinyl)ethyl]-amino]carbonyl]-3-[4-(trifluoromethyl)-phenyl]-2-quinoxaline-pentanoic acid], for which the Ki (rated A-E (Table A)) is 2.1 to 20 nM.
The same measure, in the same setting: to `CC(NC(=O)c1ccc2nc(-c3ccc(C(F)(F)F)cc3)c(CCCCC(=O)O)nc2c1)c1ccccn1` (stereo not shown) [3AB, 7-[[[1-(2-pyridinyl)ethyl]-amino]carbonyl]-3-[4-(trifluoromethyl)phenyl]-2-quinoxalinepentanoic acid] belongs 2.1 to 20 nM; to `O=C(O)CCCCc1nc2cc(C(=O)NCc3ccncc3)ccc2nc1-c1ccc(C(F)(F)F)cc1` [3AC, 7-[[(4-pyridinylmethyl)-amino]carbonyl]-3-[4-(trifluoromethyl)phenyl]-2-quinoxalinepentanoic acid], 2.1 to 20 nM.
Under “rated A-E (Table A)”, `O=C(O)CCCCc1nc2cc(C(=O)NCc3cccnc3)ccc2nc1-c1ccc(C(F)(F)F)cc1` [3AD] had a Ki of 2.1 to 20 nM.
`O=C(O)CCCCc1nc2cc(C(=O)NCc3ccccn3)ccc2nc1-c1ccc(C(F)(F)F)cc1` [3AE, 7-[[(2-pyridinylmethyl)-amino]carbonyl]-3-[4-(trifluoromethyl)phenyl]-2-quinoxalinepentanoic acid]: the Ki (rated A-E (Table A)) was in the range of 2.1 to 20 nM.
For the setting “rated A-E (Table A)”, `O=C(O)CCCCc1nc2cc(C(=O)NCc3ccc(C(F)(F)F)nc3)ccc2nc1-c1ccc(C(F)(F)F)cc1` [3AF, 3-[4-(trifluoromethyl)phenyl]-7-[[[[6-(trifluoromethyl)-3-pyridinyl]methyl]amino]-carbonyl]-2-quinoxaline-pentanoic acid] came in with a Ki of 2.1 to 20 nM.
In turn, `COC(=O)c1ccc2nc(-c3ccc(C(F)(F)F)cc3)c(CCCCC(=O)O)nc2c1` [3AG, 7-(methoxycarbonyl)-3-[4-(trifluoromethyl)phenyl]-2-quinoxalinepentanoic acid] yielded an inhibitory constant (Ki) (rated A-E (Table A)) of 2.1 to 20 nM.
As for `O=C(O)CCCCc1nc2cc(C(=O)Nc3ccc(F)cc3)ccc2nc1-c1cccc(F)c1` [3T, 3-(3-fluorophenyl)-7-[[(4-fluorophenyl)amino]carbonyl]-2-quinoxalinepentanoic acid], where the note is “rated A-E (Table A)”, the Ki lay in the range of 20.1 to 200 nM.
Where the note is “rated A-E (Table A)”, `O=C(O)CCCCc1nc2cc(C(=O)Nc3cccc(F)c3)ccc2nc1-c1cccc(F)c1` [3U, 3-(3-fluorophenyl)-7-[[(3-fluorophenyl)amino]carbonyl]-2-quinoxalinepentanoic acid] gave a Ki of 20.1 to 200 nM.
With `O=C(O)CCCCc1nc2cc(C(=O)Nc3ccccc3F)ccc2nc1-c1cccc(F)c1` [3V, 3-(3-fluoropheny)-7-[[(2-fluorophenyl)amino]carbonyl]-2-quinoxalinepentanoic acid], the Ki (rated A-E (Table A)) was 201 to 700 nM.
On the same count and under the same terms, the value for `C[C@H](NC(=O)c1ccc2nc(-c3ccc(C(F)(F)F)cc3)c(CCCCC(=O)O)nc2c1)c1ccccc1` [3W, 7-[[(1-(S)-phenylethyl)amino]carbonyl]-3-[4-(trifluoromethyl)phenyl]-2-quinoxalinepentanoic acid] was 2.1 to 20 nM; that for `C[C@@H](NC(=O)c1ccc2nc(-c3ccc(C(F)(F)F)cc3)c(CCCCC(=O)O)nc2c1)c1ccccc1` [3X, 7-[[(1-(R)-phenylethyl)amino]carbonyl]-3-[4-(trifluoromethyl)phenyl]-2-quinoxalinepentanoic acid] was 2.1 to 20 nM.
Turning to `O=C(O)CCCCc1nc2cc(C(=O)N3CCN(c4ccccc4)CC3)ccc2nc1-c1ccc(C(F)(F)F)cc1` [3Y, 7-[(4-phenyl-1-piperazinyl)carbonyl]-3-[4-(trifluoromethyl)phenyl]-2-quinoxalinepentanoic acid], the Ki (rated A-E (Table A)) was 0.1 to 2 nM.
Consider `O=C(O)CCCCc1nc2cc(C(=O)C3CC3)ccc2nc1-c1ccc(C(F)(F)F)cc1` [3Z, 7-(cyclopropylcarbonyl)-3-[4-(trifluoromethyl)phenyl]-2-quinoxalinepentanoic acid], for which the Ki (rated A-E (Table A)) is 0.1 to 2 nM.
Same read-out and setting: to `C[C@@H](NC(=O)c1ccc2nc(-c3ccc(C(F)(F)F)cc3)c(CCCCC(=O)O)nc2c1)c1cccc(-c2ccccc2)c1` [4D, 7-[[[1-(R)-[1,1′-biphenyl]-3-ylethyl]amino]carbonyl]-3-[4-(trifluoromethyl)-phenyl]-2-quinoxaline-pentanoic acid] belongs 20.1 to 200 nM; to `O=C(O)CCCCc1nc2cc(C(=O)c3ccccc3)ccc2nc1-c1ccc(F)cc1` [5G], 0.1 to 2 nM.
The compound `O=C(O)CCCCc1nc2cc(C(=O)Nc3cccc(F)c3)ccc2nc1-c1ccc(F)cc1` [5N, 3-(4-fluorophenyl)-7-[[(3-fluorophenyl)amino]carbonyl]-2-quinoxalinepentanoic acid] came in with a Ki (rated A-E (Table A)) of 20.1 to 200 nM.
On the same count and under the same terms, the value for `O=C(O)CCCCc1nc2cc(C(=O)Nc3ccc(F)cc3)ccc2nc1-c1ccc(F)cc1` [5O, 3-(4-fluorophenyl)-7-[[(4-fluorophenyl)amino]carbonyl]-2-quinoxalinepentanoic acid] was 20.1 to 200 nM.
For the compound `O=C(O)CCCCc1nc2cc(C(=O)Nc3ccccc3F)ccc2nc1-c1ccc(F)cc1` [5P, 3-(4-fluorophenyl)-7-[[(2-fluorophenyl)amino]carbonyl]-2-quinoxalinepentanoic acid], the Ki reads like this: (rated A-E (Table A)) 201 to 700 nM; (values in text) 266 nM.
Compound `CN(C)C(=O)c1ccc2nc(-c3ccc(F)cc3)c(CCCCC(=O)O)nc2c1` [5Q, 7-[(dimethylamino)carbonyl]-3-(4-fluorophenyl)-2-quinoxalinepentanoic acid] registered a Ki (rated A-E (Table A)) of 20.1 to 200 nM.
As to `CC(C)NC(=O)c1ccc2nc(-c3ccc(F)cc3)c(CCCCC(=O)O)nc2c1` [5R, 3-(4-fluorophenyl)-7-[[(1-methylethyl)amino]carbonyl]-2-quinoxalinepentanoic acid], for the setting “rated A-E (Table A)”, the Ki lay within 2.1 to 20 nM.
Compound `O=C(O)CCCCc1nc2cc(C(=O)N3CCC3)ccc2nc1-c1ccc(F)cc1` [5S, 7-(1-azetidinylcarbonyl)-3-(4-fluorophenyl)-2-quinoxalinepentanoic acid] returned a Ki (rated A-E (Table A)) of 2.1 to 20 nM.
`O=C(O)CCCCc1nc2cc(C(=O)C3CC3)ccc2nc1-c1ccccc1` [6G, 7-(cyclopropylcarbonyl)-3-phenyl-2-quinoxalinepentanoic acid]: the Ki by setting is: (rated A-E (Table A)) 0.1 to 2 nM; (values in text) 0.5 nM.
`COC(=O)c1ccc2nc(-c3ccccc3)c(CCCCC(=O)O)nc2c1` [6H, 7-(methoxycarbonyl)-3-phenyl-2-quinoxalinepentanoic acid] showed a Ki (rated A-E (Table A)) of 2.1 to 20 nM.
In turn, `CC(C)C(=O)c1ccc2nc(-c3ccc(F)cc3)c(CCCCC(=O)O)nc2c1` [7C, 3-(4-fluorophenyl)-7-(2-methyl-1-oxopropyl)-2-quinoxalinepentanoic acid] displayed a Ki (rated A-E (Table A)) of 0.1 to 2 nM.
Same read-out and setting: the value for `C[C@@H](NC(=O)c1ccc2nc(CCCCC(=O)O)c(-c3ccccc3)nc2c1)c1ccc(F)cc1` [8G] was 20.1 to 200 nM.
Under “rated A-E (Table A)”, `O=C(O)CCCOc1nc2cc(C(=O)NCc3ccc(Cl)cc3)ccc2nc1-c1ccccc1` [10C, 4-({7-[(4-chlorobenzyl)carbamoyl]-3-phenylquinoxalin-2-yl}oxy)butanoic acid] registered a Ki of 0.1 to 2 nM.
The same measure, in the same setting: the value for `C[C@H](NC(=O)c1ccc2nc(-c3ccccc3)c(OCCCC(=O)O)nc2c1)c1ccccc1` [10D, 4-[(3-phenyl-7-{[(1S)-1-phenylethyl]carbamoyl}quinoxalin-2-yl)oxy] butanoic acid] was 2.1 to 20 nM; that for `CN(Cc1ccccc1)C(=O)c1ccc2nc(-c3ccccc3)c(OCCCC(=O)O)nc2c1` [10E, 4-({7-[benzyl(methyl)carbamoyl]-3-phenylquinoxalin-2-yl}oxy)butanoic acid] was 0.1 to 2 nM.
Still for that read-out and setting: the value for `O=C(O)CCCOc1nc2cc(C(=O)N3CCc4ccccc4C3)ccc2nc1-c1ccccc1` [10F, 4-{[7-(3,4-dihydroiso-quinolin-2(1H)-ylcarbonyl)-3-phenylquinoxalin-2-yl]oxy} butanoic acid] was 2.1 to 20 nM; that for `O=C(O)CCCCc1nc2cc(NC(=O)c3ccc(OC(F)(F)F)cc3)ccc2nc1-c1ccccc1` [11D] was 201 to 700 nM.
Still for that read-out and setting: to `O=C(O)CCCCc1nc2cc(NC(=O)c3ccc(Cl)cc3)ccc2nc1-c1ccccc1` [11E, 5-(7-{[(4-chlorophenyl)-carbonyl]amino}-3-phenyl-quinoxalin-2-yl)pentanoic acid] belongs 201 to 700 nM.
